The conditions of data set [1]: fresh or as designated.
In another data set the test system is rats. The settings on record: subchronic.

Consider `CCCCOP(=O)(OCCCC)Oc1ccccc1` [DBPP, dibutyl phenyl phosphate, reference compound], for which the “Independent Lab Cond.” value in data set [1] was determined as 0.008 μMHO/cm.

`CC(C)COP(=O)(OCC(C)C)OCC(C)C` [TIBP, triisobutyl phosphate]: the “Independent Lab Cond.” value in data set [1] was 0.001 μMHO/cm. This compound also gave an NOEL in the data set on rats (bladder hyperplasia, rats) of 5000 ppm. Further, the “Bladder Hyperplasia (finding)” value with rats (in rats >5000 ppm) is “None observed”.
